Assay results reported in PubChem BioAssay AID248 (DTP/NCI, 2004).
Toxic doses and inconclusive results are not listed. Rule as the data show it: active = T/C of 150% or more; inactive = T/C below 125%.

System: L1210 leukemia ip in BDF1 mice, survival T/C
Assay: NCI In Vivo Anticancer Drug Screen. Data for tumor model L1210 Leukemia (intraperitoneal) in B6D2F1 (BDF1) mice
Details: endpoint: mean survival time, higher = longer survival
Summary of the method: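 Transplantable tumor model; survival measured in treated vs vehicle control mice. Value = treated/control.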

[1] = dose: 100.0 mg/kg/injection, schedule: Q01DX001 (ip), vehicle: other
[2] = dose: 200.0 mg/kg/injection, schedule: Q01DX001 (ip), vehicle: other
[3] = dose: 75.0 mg/kg/injection, schedule: Q01DX001 (ip), vehicle: saline
[4] = dose: 150.0 mg/kg/injection, schedule: Q01DX001 (ip), vehicle: saline
[5] = dose: 100.0 mg/kg/injection, schedule: Q04DX003 (ip), vehicle: saline with Tween-80
[6] = dose: 200.0 mg/kg/injection, schedule: Q04DX003 (ip), vehicle: saline with Tween-80
[7] = dose: 400.0 mg/kg/injection, schedule: Q04DX003 (ip), vehicle: saline with Tween-80
[8] = dose: 100.0 mg/kg/injection, schedule: Q04DX003 (ip), vehicle: Klucel (hydroxypropylcellulose) (HPC)
[9] = dose: 200.0 mg/kg/injection, schedule: Q04DX003 (ip), vehicle: Klucel (hydroxypropylcellulose) (HPC)
[10] = dose: 400.0 mg/kg/injection, schedule: Q04DX003 (ip), vehicle: Klucel (hydroxypropylcellulose) (HPC)

Measured: T/C

O=C(O)c1ccc(N=Cc2ccccc2O)cc1.[Co]
inactive: [1] 96 % of control | [2] 112 % of control

Cc1ccc(N=Nc2sc(N)nc2C)cc1
inactive: [3] 97 % of control | [4] 102 % of control

O=C(CF)[O][Sb]([O]C(=O)CF)([c]1ccccc1)([c]1ccccc1)[c]1ccccc1
inactive: dose: 5.0 mg/kg/injection, schedule: Q04DX003 (ip), vehicle: saline with Tween-80 92 % of control | dose: 10.0 mg/kg/injection, schedule: Q04DX003 (ip), vehicle: saline with Tween-80 101 % of control | dose: 20.0 mg/kg/injection, schedule: Q04DX003 (ip), vehicle: saline with Tween-80 106 % of control

CCS(=O)(=O)C(=CN(C)C)S(=O)(=O)CC
inactive: dose: 75.0 mg/kg/injection, schedule: Q04DX003 (ip), vehicle: saline 97 % of control | dose: 150.0 mg/kg/injection, schedule: Q04DX003 (ip), vehicle: saline 97 % of control | dose: 300.0 mg/kg/injection, schedule: Q04DX003 (ip), vehicle: saline 92 % of control

COc1cc(C(=O)O)ccc1N
inactive: [5] 102 % of control | [6] 104 % of control | [7] 102 % of control

O=C(O)c1cscc1-c1cccc2ccccc12
inactive: [5] 91 % of control | [6] 98 % of control

CN(C)C1CCN(Cc2ccccc2)CC1
inactive: dose: 50.0 mg/kg/injection, schedule: Q01DX009 (ip), vehicle: saline 94 % of control | dose: 50.0 mg/kg/injection, schedule: Q04DX003 (ip), vehicle: saline 100 % of control | dose: 100.0 mg/kg/injection, schedule: Q01DX009 (ip), vehicle: saline 96 % of control | dose: 100.0 mg/kg/injection, schedule: Q04DX003 (ip), vehicle: saline 97 % of control | dose: 200.0 mg/kg/injection, schedule: Q01DX009 (ip), vehicle: saline 93 % of control | dose: 200.0 mg/kg/injection, schedule: Q04DX003 (ip), vehicle: saline 92 % of control

C/C=C/CC1(C(C)C)C(=O)NC(=O)NC1=O
inactive: dose: 75.0 mg/kg/injection, schedule: Q01DX001 (ip), vehicle: other 103 % of control | [3] 101 % of control | dose: 150.0 mg/kg/injection, schedule: Q01DX001 (ip), vehicle: other 105 % of control | [4] 104 % of control

C[CH2][Pb]([CH2]C)([CH2]C)[O]C(=O)COc1ccccc1
inactive: dose: 0.75 mg/kg/injection, schedule: Q01DX009 (ip), vehicle: Klucel (hydroxypropylcellulose) (HPC) 98 % of control | dose: 0.75 mg/kg/injection, schedule: Q04DX003 (ip), vehicle: saline with Tween-80 96 % of control | dose: 1.5 mg/kg/injection, schedule: Q01DX009 (ip), vehicle: Klucel (hydroxypropylcellulose) (HPC) 95 % of control | dose: 1.5 mg/kg/injection, schedule: Q04DX003 (ip), vehicle: saline with Tween-80 95 % of control | dose: 3.0 mg/kg/injection, schedule: Q01DX009 (ip), vehicle: Klucel (hydroxypropylcellulose) (HPC) 106 % of control | dose: 3.0 mg/kg/injection, schedule: Q04DX003 (ip), vehicle: saline with Tween-80 101 % of control | dose: 6.0 mg/kg/injection, schedule: Q01DX009 (ip), vehicle: Klucel (hydroxypropylcellulose) (HPC) 102 % of control | dose: 6.0 mg/kg/injection, schedule: Q04DX003 (ip), vehicle: saline with Tween-80 91 % of control | dose: 12.0 mg/kg/injection, schedule: Q04DX003 (ip), vehicle: saline with Tween-80 101 % of control | dose: 12.5 mg/kg/injection, schedule: Q04DX002 (ip), vehicle: Klucel (hydroxypropylcellulose) (HPC) 103 % of control | dose: 25.0 mg/kg/injection, schedule: Q04DX002 (ip), vehicle: Klucel (hydroxypropylcellulose) (HPC) 97 % of control

CC(C(CC(=O)c1ccccc1)c1ccccc1)[N+](=O)[O-] (configuration not stated)
inactive: dose: 100.0 mg/kg/injection, schedule: Q01DX001 (ip), vehicle: Klucel (hydroxypropylcellulose) (HPC) 124 % of control | [5] 98 % of control | dose: 200.0 mg/kg/injection, schedule: Q01DX001 (ip), vehicle: Klucel (hydroxypropylcellulose) (HPC) 97 % of control | [6] 97 % of control | dose: 400.0 mg/kg/injection, schedule: Q01DX001 (ip), vehicle: Klucel (hydroxypropylcellulose) (HPC) 96 % of control | [7] 92 % of control

O=C1OC(=O)C2C3C=CC(C12)C1C2C(=O)OC(=O)C2C31 (configuration not stated)
inactive: [5] 94 % of control | [6] 94 % of control | [7] 91 % of control

COc1c(Cl)cc2c(c1OC)N(C)C1N3C(=O)C4(C)SSC3(CC21O)C(=O)N4C (configuration not stated)
inactive: dose: 0.12 mg/kg/injection, schedule: Q01DX009 (ip), vehicle: Klucel (hydroxypropylcellulose) (HPC) 100 % of control | dose: 0.25 mg/kg/injection, schedule: Q01DX009 (ip), vehicle: Klucel (hydroxypropylcellulose) (HPC) 101 % of control | dose: 0.5 mg/kg/injection, schedule: Q01DX009 (ip), vehicle: Klucel (hydroxypropylcellulose) (HPC) 108 % of control | dose: 1.0 mg/kg/injection, schedule: Q01DX009 (ip), vehicle: Klucel (hydroxypropylcellulose) (HPC) 111 % of control

O=C(O)CC1(C(=O)O)CCN(Cc2ccccc2)CC1
inactive: [8] 103 % of control | [9] 102 % of control | [10] 100 % of control

O=C(c1ccccc1Br)C1C(c2ccccc2)N1C1CCCCC1 (configuration not stated)
inactive: dose: 50.0 mg/kg/injection, schedule: Q04DX003 (ip), vehicle: Klucel (hydroxypropylcellulose) (HPC) 102 % of control | [8] 102 % of control | [9] 98 % of control | [10] 93 % of control

COC(=O)C(Cc1c[nH]c2ccccc12)NC(=O)CNC(=O)OCc1ccccc1 (configuration not stated)
inactive: dose: 100.0 mg/kg/injection, schedule: Q04DX003 (ip), vehicle: other 98 % of control | dose: 200.0 mg/kg/injection, schedule: Q04DX003 (ip), vehicle: other 102 % of control | dose: 400.0 mg/kg/injection, schedule: Q04DX003 (ip), vehicle: other 98 % of control

CNS(=O)(=O)c1ccc(NC(=O)C(Cl)Cl)cc1
inactive: [1] 101 % of control | dose: 100.0 mg/kg/injection, schedule: Q01DX009 (ip), vehicle: saline with Tween-80 95 % of control | [2] 103 % of control | dose: 200.0 mg/kg/injection, schedule: Q01DX009 (ip), vehicle: saline with Tween-80 106 % of control | dose: 400.0 mg/kg/injection, schedule: Q01DX001 (ip), vehicle: other 101 % of control | dose: 400.0 mg/kg/injection, schedule: Q01DX009 (ip), vehicle: saline with Tween-80 102 % of control

Cc1ccc(S(=O)(=O)NC(=O)O/N=C/c2ccccn2)cc1
inactive: [5] 98 % of control | [6] 101 % of control | [7] 104 % of control

Oc1ccc(CN2CCCCC2)c2cccnc12
inactive: dose: 75.0 mg/kg/injection, schedule: Q01DX001 (ip), vehicle: carboxymethylcellulose (CMC) 106 % of control | dose: 150.0 mg/kg/injection, schedule: Q01DX001 (ip), vehicle: carboxymethylcellulose (CMC) 106 % of control

C=C/C=C\N(CC)CC
inactive: dose: 6.25 mg/kg/injection, schedule: Q01DX009 (ip), vehicle: water 98 % of control | dose: 12.5 mg/kg/injection, schedule: Q01DX009 (ip), vehicle: water 97 % of control | dose: 25.0 mg/kg/injection, schedule: Q01DX009 (ip), vehicle: water 104 % of control | dose: 25.0 mg/kg/injection, schedule: Q04DX003 (ip), vehicle: water 95 % of control | dose: 50.0 mg/kg/injection, schedule: Q01DX009 (ip), vehicle: water 98 % of control | dose: 50.0 mg/kg/injection, schedule: Q04DX003 (ip), vehicle: water 88 % of control | dose: 100.0 mg/kg/injection, schedule: Q04DX003 (ip), vehicle: water 100 % of control

CCOC(=O)c1ccc(N=NC2C(=O)N(c3ccccc3)N=C2C)cc1 (configuration not stated)
inactive: dose: 100.0 mg/kg/injection, schedule: Q01DX001 (ip), vehicle: saline 96 % of control | dose: 200.0 mg/kg/injection, schedule: Q01DX001 (ip), vehicle: saline 96 % of control

Cc1cc(=O)[nH]c(N/N=C/C(C)C)n1
inactive: dose: 50.0 mg/kg/injection, schedule: Q01DX009 (ip), vehicle: Klucel (hydroxypropylcellulose) (HPC) 95 % of control | dose: 100.0 mg/kg/injection, schedule: Q01DX009 (ip), vehicle: Klucel (hydroxypropylcellulose) (HPC) 95 % of control | [8] 95 % of control | dose: 200.0 mg/kg/injection, schedule: Q01DX009 (ip), vehicle: Klucel (hydroxypropylcellulose) (HPC) 93 % of control | [9] 89 % of control

CC(C)(N)COC(=O)c1ccc([N+](=O)[O-])cc1
inactive: dose: 50.0 mg/kg/injection, schedule: Q01DX009 (ip), vehicle: acetone 101 % of control | dose: 100.0 mg/kg/injection, schedule: Q01DX009 (ip), vehicle: acetone 101 % of control | dose: 200.0 mg/kg/injection, schedule: Q01DX009 (ip), vehicle: acetone 95 % of control
